In brackets after ≈: the same amount, converted by molar mass. Square brackets hold non-standard residues; d marks the D form. Peptide text beside a SMILES is read from it. 2Nal = N[C@@H](Cc1ccc2ccccc2c1)C(=O)O; Nlys = NCCCCNCC(=O)O

For orientation: IC50 means the concentration that inhibits the measured activity by half. The low end stands for higher potency, the high end for lower potency.

The nature of data set [1]: in vitro. It is filed as cell-based, human. As to conditions: human. As for the experimental part:
(§1) The haemolytic activity of the 24 structurally related peptides (Table 1) was evaluated in erythrocytes from four different species (human, canine, bovine and rat) employing standard methodology. The subsequent release of haemoglobin was used to assess haemolytic activity as function of peptide and peptidomimetic concentration, with concentrations ranging from 0.15 to 150 µM (Presented in whole in Supplementary information Table S1–S4).
(§2) Human and rat (Sprague–Dawley) blood samples were purchased by Bioreclamation IVT (Westbury, NY, USA), collected in tubes containing heparin as anticoagulant and stored at 4 °C before use. Dog and bovine whole blood was collected from in-house animals at Zoetis Animal Health, Kalamazoo, Michigan and stored at 4 °C in tubes containing heparin as anticoagulant. 10 mL of each whole blood sample were centrifuged at 1,500 × g for 5 min and the resulting plasma fraction was removed from the samples. The pellets were washed with an equal volume (10 mL) of saline, mixing by inversion. The centrifuging and washing steps were repeated 5 times. After the last washing step, a volume of PBS was added, and the resulting samples were diluted 1:10 with PBS to yield an RBC concentration of ~ 5 × 10^8 RBC/mL. The assay was performed in a 384-well polypropylene microplate (Greiner 784201, Greiner Bio-One International, GMBH) through a Bravo Liquid Handling Platform 384 system (Agilent Technologies, Santa Clara, CA, USA) according to the previously published procedures. The compounds were tested in serial 1:1 dilutions in PBS, with final concentrations ranging from 150 to 1.2 µM. Melittin was used as reference lytic peptide. 1% TritonX100 and PBS were used as positive and negative (diluent) controls, respectively. The final concentrations were obtained by adding to the wells 7 µL of each solution, melittin or PBS, followed by 63 µL of RBCs to each well. The plate was sealed, shaken on a plate shaker for 20 s, incubated for one hour at 37 °C. Finally, it was centrifuged at 1,500 × g for 5 min at room temperature. 60 µL of supernatants were removed from all plate wells via a Bravo 384 robot and transferred to a flat-bottomed 384-well plate (Greiner UV-Star #7810801, Greiner Bio-One International, GMBH). The plate was centrifuged at 1,000 g for 1 min to remove air bubbles and optical density was measured at 405 nm using a plate reader. Percentage of haemolysis was calculated with the following equation: %haemolysis=(absorbance of test sample)-absorbance of diluent/absorbance of positive control-absorbance of diluent×100.

In another data set the test system is human erythrocytes. Description: in vitro. It is filed as cell-based. As to conditions: for IC10 haemolysis: human erythrocytes; for IC50: red cells of human. As for the experimental part:
as §1, §2

Data set [2] is described as follows: in vitro. Conditions: dog. It counts as cell-based, dog. As for the experimental part: as §1, §2
The next data set concerns canine erythrocytes. Description: in vitro. It is filed as cell-based, dog. Conditions: for IC10 haemolysis: canine erythrocytes; for IC50: red cells of canine. The method, then: as §1, §2
Data set [3] is described as follows: in vitro. It is filed as cell-based, rat (Sprague–Dawley). As to conditions: Sprague-Dawley, rat. The method, then: as §1, §2
The test system of the next data set is rat erythrocytes. Description: in vitro. It counts as cell-based, rat (Sprague–Dawley). Conditions: for IC10 haemolysis: rat erythrocytes; for IC50: red cells of rat. As for the experimental part: as §1, §2
Data set [4] in a line: in vitro. It counts as cell-based, bovine. As to conditions: bovine. The method, then:
as §1, §2

A further data set relates to HaCaT cells. It counts as cell-based, human. Conditions: 1 h. The method, then: (§3) An immortalised human keratinocyte (HaCaT) cell line (Gift from David Gram Naym at Bispebjerg Hospital, Denmark), a human liver cancer cell line (HepG2; ATCC HB-8065) and a human epithelial cervical cancer cell line (HeLa; ATCC CCL-2) were cultured to ∼90% confluence after 21–25 h of growth under standard conditions (5% CO2 at 37 °C). Cells were cultured in Dulbecco’s Modified Eagle’s Medium supplemented with 10% (v/v) fetal bovine serum (FBS). All culture media were supplemented with penicillin (100 IU/mL) and streptomycin (100 μg/mL). All cell media and supplements were obtained from Sigma-Aldrich (St. Louis, MO, United States). The 96-well plates were supplied by Corning Costar (Sigma-Aldrich, Brøndby, Denmark). Cell viability assessment was performed on cell monolayers grown to ∼90% confluence in 96-well plates by using the MTS/PMS assay as previously described. Briefly, the adhered cells were washed with PBS solution (37 °C) (ThermoFisher Scientific, Roskilde) and exposed for 1 h at 37 °C to 100 μL of peptides dissolved in the medium also used for culturing of the cell line (at concentrations in the range 0–1,000 μg/mL). The cells were subsequently washed twice with 37 °C PBS and then 100 μL of an MTS/PMS solution in media, consisting of 240 μg/mL MTS (Promega, Madison, WI, United States) and 2.4 mg/mL PMS (Promega, Madison, WI, United States), was added to the cells, which then were incubated for 1 h at 37 °C protected from light. A plate reader (SpectraMax i3X; Molecular devices, San Jose, CA) was used to measure the absorbance at 492 nm. The relative viability was calculated by using 0.2% (w/v) sodium dodecyl sulfate (SDS) as the positive control, while cells exposed to medium without test compound were used as the negative control.

The subject of a further data set is HeLa cells. It counts as cell-based, human. Conditions: 1 h. As for the experimental part:
as §3

Data set [5] has as its system Staphylococcus pseudintermedius. As to conditions: cited from earlier work.
Another data set deals with Staphylococcus aureus. On the set-up: method as in PMID 30842436. Conditions: cited from earlier work.
For another data set, the system named is Pseudomonas aeruginosa. Details: method as in PMID 30842436. Conditions: cited from earlier work.
The next data set relates to bovine erythrocytes. The data set can be described thus: in vitro. It counts as cell-based. Conditions: bovine erythrocytes. The method, then:
as §1, §2

Consider `CC(C)C[C@H](NC(=O)[C@H](Cc1cccc2ccccc12)NC(=O)[C@H](Cc1ccccc1)NC(=O)[C@@H](N)Cc1cccc2ccccc12)C(=O)N[C@@H](CCCCN)C(=O)N[C@@H](CCCCN)C(=O)N[C@@H](CCCCN)C(N)=O` [Compound 5, (1-Nal)Ala-Phe-(1-Nal)Ala-Leu-Lys-Lys-Lys] (HELM PEPTIDE1{[N[C@@H](Cc1cccc2ccccc12)C(=O)[*:2]].F.[O=C([C@H](Cc1cccc2ccccc12)N[*:1])[*:2]].L.K.K.K.[am]}$$$$V2.0), for which the hemolysis at 1 h, 150 µM in “in vitro [1]” is 36%; in “in vitro [2]”, 22.5%; in “in vitro [3]”, 10.2%; in the data set “in vitro [4]”, less than 8%. Also, the IC10 haemolysis in the data set on human erythrocytes amounted to 35.3 µM; with canine erythrocytes, 29.6 µM; in the data set on rat erythrocytes it was 147.7 µM. The IC50 is more than 150 µM in the data set on human erythrocytes; more than 150 µM with canine erythrocytes; more than 150 µM with rat erythrocytes; 524 µM with HaCaT cells; 1030 µM with HeLa cells. Also, the “S.p. MIC” value in data set [5] (Staphylococcus pseudintermedius, Table S5, in µM) is recorded as 15.1 µM. Besides, in data set [5], the “MIC against Staphylococcus pseudintermedius” value is on record as 16 µg/mL (≈ 15.1 µM). In addition, the “MIC against Staphylococcus aureus” value in the data set on Staphylococcus aureus is listed as 32 µg/mL (≈ 30.3 µM). In addition, the “MIC against Pseudomonas aeruginosa” value in the data set with Pseudomonas aeruginosa is recorded as more than 64 µg/mL.

In the case of `CCCC[C@H](NC(=O)[C@H](CCCCN)NC(=O)[C@H](CCCCN)NC(=O)[C@@H](N)CCCCN)C(=O)N[C@@H](Cc1cccc2ccccc12)C(=O)N[C@@H](Cc1ccccc1)C(=O)N[C@@H](Cc1cccc2ccccc12)C(N)=O` [Compound 20, Lys-Lys-Lys-Nle-(1-Nal)Ala-Phe-(1-Nal)Ala] (HELM PEPTIDE1{K.K.K.[Nle].[O=C([C@H](Cc1cccc2ccccc12)N[*:1])[*:2]].F.[O=C([C@H](Cc1cccc2ccccc12)N[*:1])[*:2]].[am]}$$$$V2.0), the hemolysis at 1 h, 150 µM in the data set “in vitro [1]” is 27.5%; in “in vitro [2]”, 36%; in “in vitro [3]”, less than 8%; in “in vitro [4]”, 20.1%. Moreover, the IC10 haemolysis was 91.3 µM in the data set on human erythrocytes, 45.8 µM in the data set on canine erythrocytes, more than 150 µM in the data set on rat erythrocytes and 94.7 µM in the data set with bovine erythrocytes. Also, the half-inhibitory concentration (IC50) in the data set on human erythrocytes, in the data set with canine erythrocytes and with rat erythrocytes was more than 150 µM throughout. Also, the “MIC against Staphylococcus pseudintermedius” value in data set [5] is 16 to 32 µg/mL. Moreover, in the data set on Staphylococcus aureus, the “MIC against Staphylococcus aureus” value is on record as more than 64 µg/mL. Further, in the data set on Pseudomonas aeruginosa, the “MIC against Pseudomonas aeruginosa” value is given as 16 µg/mL (≈ 15.1 µM).

For `CC(C)C[C@@H](NC(=O)[C@H](CCCCN)NC(=O)[C@H](CCCCN)NC(=O)[C@@H](N)CCCCN)C(=O)N[C@H](Cc1cccc2ccccc12)C(=O)N[C@H](Cc1ccc(O)cc1)C(=O)N[C@H](Cc1cccc2ccccc12)C(N)=O` [Compound 21, Lys-Lys-Lys-Leu-(1-Nal)Ala-Tyr-(1-Nal)Ala] (HELM PEPTIDE1{K.K.K.[dL].[O=C([C@@H](Cc1cccc2ccccc12)N[*:1])[*:2]].[dY].[O=C([C@@H](Cc1cccc2ccccc12)N[*:1])[*:2]].[am]}$$$$V2.0), the hemolysis at 1 h, 150 µM in “in vitro [1]” was less than 8%; in “in vitro [2]” it was 19.9%; in the data set “in vitro [3]”, less than 8%; in “in vitro [4]”, 16%. Moreover, the IC10 haemolysis in the data set with human erythrocytes is recorded as more than 150 µM; in the data set with canine erythrocytes it was 48.2 µM; in the data set with rat erythrocytes, more than 150 µM; with bovine erythrocytes, 109.7 µM. For the same molecule, the IC50 with human erythrocytes, with canine erythrocytes and in the data set on rat erythrocytes was more than 150 µM throughout. Further, the “MIC against Staphylococcus pseudintermedius” value in data set [5] is 2 to 4 µg/mL. In the data set with Staphylococcus aureus, the “MIC against Staphylococcus aureus” value is 32 to 64 µg/mL. In the data set with Pseudomonas aeruginosa, the “MIC against Pseudomonas aeruginosa” value was 8 µg/mL (≈ 7.46 µM).

With `CC(C)C[C@H](NC(=O)CN(CCCCN)C(=O)CN(CCCCN)C(=O)CNCCCCN)C(=O)N[C@@H](Cc1ccc2ccccc2c1)C(=O)N[C@@H](Cc1ccccc1)C(=O)N[C@@H](Cc1ccc2ccccc2c1)C(N)=O` [Compound 23, N-Lys-N-Lys-N-Lys-Leu-(2-Nal)Ala-Phe-(2-Nal)Ala] (H-[Nlys][Nlys][Nlys]L[2Nal]F[2Nal]-NH2), the hemolysis at 1 h, 150 µM in “in vitro [1]” is 35.9%; in the data set “in vitro [2]” it was 35.1%; in “in vitro [3]”, less than 8%; in the data set “in vitro [4]”, 11.1%. In addition, the “Haemolytic activity (in words)” value in the data set with human erythrocytes is “not highly lytic”. Further, the IC10 haemolysis in the data set with human erythrocytes is given as 98.7 µM; in the data set with canine erythrocytes, 43.3 µM; in the data set with rat erythrocytes it was more than 150 µM; with bovine erythrocytes it was 145.8 µM. Moreover, the IC50 in the data set on human erythrocytes, with canine erythrocytes and with rat erythrocytes was more than 150 µM in each case. Besides, the “MIC against Staphylococcus pseudintermedius” value in data set [5] was 2 to 4 µg/mL. In addition, the “MIC against Staphylococcus aureus” value in the data set with Staphylococcus aureus is 32 µg/mL (≈ 30.3 µM). Besides, the “MIC against Pseudomonas aeruginosa” value with Pseudomonas aeruginosa is listed as 32 µg/mL (≈ 30.3 µM).

As to `CC(C)C[C@@H](NC(=O)[C@H](CCCCN)NC(=O)[C@H](CCCCN)NC(=O)[C@@H](N)CCCCN)C(=O)N[C@H](Cc1ccc2ccccc2c1)C(=O)N[C@H](Cc1ccc(O)cc1)C(=O)N[C@H](Cc1ccc2ccccc2c1)C(N)=O` [Compound 24, Lys-Lys-Lys-Leu-(2-Nal)Ala-Tyr-(2-Nal)Ala] (HELM PEPTIDE1{K.K.K.[dL].[O=C([C@@H](Cc1ccc2ccccc2c1)N[*:1])[*:2]].[dY].[O=C([C@@H](Cc1ccc2ccccc2c1)N[*:1])[*:2]].[am]}$$$$V2.0), the hemolysis at 1 h, 150 µM in the data set “in vitro [1]” is 23.4%; in the data set “in vitro [2]” it was 38.5%; in “in vitro [3]” it was less than 8%; in the data set “in vitro [4]” it was 29.8%. The IC10 haemolysis in the data set on human erythrocytes is on record as 76.72 µM; with canine erythrocytes, 45.0 µM; in the data set on rat erythrocytes, more than 150 µM; in the data set on bovine erythrocytes, 89.6 µM. For the same molecule, the IC50 in the data set on human erythrocytes, in the data set on canine erythrocytes and in the data set with rat erythrocytes was more than 150 µM throughout. Also, the “MIC against Staphylococcus pseudintermedius” value in data set [5] was 4 to 8 µg/mL. Also, the “MIC against Staphylococcus aureus” value in the data set on Staphylococcus aureus is 16 to 32 µg/mL. The “MIC against Pseudomonas aeruginosa” value with Pseudomonas aeruginosa was 32 µg/mL (≈ 29.8 µM).

The values above are taken from article PMC7414031, “Correlation between hemolytic activity, cytotoxicity and systemic in vivo toxicity of synthetic antimicrobial peptides” (Scientific Reports, 2020).
